Measured values taken from patent US11974989B2, “Therapeutic uses of glucokinase activators in combination with insulin or insulin analogs” (vTv Therapeutics LLC, priority 2018, dated 2024).
Values joined by “and” are separate entries in the source; they are usually repeats but may differ in a detail not shown here. Identical values can stand only once.

What was measured:
Format in all cases: in vivo, human
[1] = test system: adult patients with type 1 diabetes (T1DM); experiment: Open-label weekly dose escalation study: safety labs; conditions: 400, 800, 1200 mg once daily, 7 days each
Experimental: (§1) An open-label, weekly dose escalation study with up to 3 dose escalations was conducted. Five adult patients with type 1 diabetes (T1DM) who were using a continuous glucose monitoring (CGM) device and insulin delivered by continuous subcutaneous insulin infusion (CSII) were dosed with a once daily with a dose of 400, 800 or 1200 mg of {2-[3-cyclohexyl-3-(trans-4-propoxy-cyclohexyl)-ureido]-thiazol-5-ylsulfanyl}-acetic acid (UT-1) for seven days at each dose level.
(§2) The initial 7 days (days −7 to −1) of the study were used to obtain baseline laboratory samples and to record baseline insulin doses and blood glucose levels during a patient's usual insulin, dietary, and activity regimen. The once daily treatment dose of UT-1 was administered morning meal. Safety labs were collected on days −7, 1, 8, 15, 21 and 28. Insulin pump data and CGM data for each dosing period was collected on days 1, 8, 15, 21, and 28. Insulin was adjusted by a patient as required to maintain glycemic control. Data from day 3 to day 6 of each dosing period or baseline period was used in the analysis of the data.

adult patients with T1DM [2] = experiment: Multi-center double-blind placebo-controlled 12-week study: safety and tolerability; conditions: 800 mg once daily up to 12 weeks
Experimental: (§3) A multi-center double-blind placebo-controlled study with a 2-week single-blind placebo run-in period to evaluate UT-1 as a potential adjunctive treatment to insulin therapy for T1DM was conducted. The study examined the response in 20 adult patients with T1DM who were using a continuous glucose monitoring (CGM) device and insulin delivered by continuous subcutaneous insulin infusion (CSII) dosed once daily with either placebo or 800 mg UT-1 for up to 12 weeks. The once daily treatment was administered with the morning meal. Safety and assessments labs were collected prior to the placebo-run in period, at Day 1 prior to dosing with blinded study medication, at weeks 2, 4, 6, 8, 12 and at approximately week 13. Insulin pump data and CGM data was collected from the single-blind placebo run-in period to the end of dosing. A quality of life and treatment satisfaction questionnaires were also used. Insulin was adjusted by patients as required to maintain glycemic control.

[3] = test system: adult patients with type 1 diabetes (T1DM); experiment: Open-label weekly dose escalation study: CGM blood glucose time in range; conditions: for median value of the percentage of time blood glucose levels were in the range of 70-180 mg/dL: median over subjects (FIG. 1), baseline 52.0%; for median value of the percentage of time blood glucose levels were greater than 180 mg/dL (hyperglycemia): median over subjects (FIG. 4), baseline 37%; for Percentage of time (using CGM) blood glucose level is in range of 70-180 mg/dL / Percentage of time (using CGM) blood glucose level is above 180 mg/dL / Percentage of time (using CGM) blood glucose level is below 54 mg/dL / Percentage of time (using CGM) blood glucose level is between 54 and 70 mg/dL: median of days 3-6, one per subject 1-5
Experimental: as §1, §2

[4] = test system: adult patients with type 1 diabetes (T1DM); experiment: Open-label weekly dose escalation study: insulin pump data (bolus and basal insulin dose); conditions: for mean value of bolus insulin dose per day: over subjects (FIG. 5), baseline 27.1 mean U/day; for Mean units of basal insulin units administered per day / Mean units of bolus insulin units administered per day: mean of days 3-6, one per subject 1-5
Experimental: as §1, §2

[5] = Open-label weekly dose escalation study: pharmacokinetic data; conditions: 1200 mg group compared to the 800 mg group
Experimental: as §1, §2

adult patients with T1DM [6] = experiment: Multi-center double-blind placebo-controlled 12-week study, adjunct to insulin: HbA1c, responder analysis, ketones, insulin usage
Experimental: as §3
Patients in this study received insulin adjustments to optimize glucose levels. […] Of all study patients, there was a greater proportion of responders in the group treated with UT-1 (75%) than in the placebo group (9%) (p=0.006).

Question: Which “effect on liver function or plasma lipids” value [1] does the source give for CCCO[C@H]1CC[C@H](N(C(=O)Nc2ncc(SCC(=O)O)s2)C2CCCCC2)CC1 [UT-1, {2-[3-cyclohexyl-3-(trans-4-propoxy-cyclohexyl)-ureido]-thiazol-5-ylsulfanyl}-acetic acid] here?
Answer: No detrimental effect

Question: And the tolerability (adult patients with T1DM [2]; similar incidences of treatment-emergent adverse events overall and by system organ class)?
Answer: well tolerated

Question: What about the “diabetic ketoacidosis or severe hypoglycemia reports” value (adult patients with T1DM [2]; whole study) of the same compound?
Answer: no report of diabetic ketoacidosis or severe hypoglycemia

Question: And the serious adverse events (adult patients with T1DM [2]; whole study)?
Answer: no serious adverse event

Question: And the “median value of the percentage of time blood glucose levels were in the range of 70-180 mg/dL” value ([3]; 400 mg dose)?
Answer: 67.9%

Question: And the “median value of the percentage of time blood glucose levels were greater than 180 mg/dL (hyperglycemia)” value ([3]; 400 mg dose)?
Answer: 30.92%

Question: What about the “median value of the percentage of time blood glucose levels were in the range of 70-180 mg/dL” value ([3]; 800 mg dose) of the same compound?
Answer: 75.7%

Question: And the “median value of the percentage of time blood glucose levels were greater than 180 mg/dL (hyperglycemia)” value ([3]; 800 mg dose)?
Answer: 20.46%

Question: And the “Percentage of time (using CGM) blood glucose level is in range of 70-180 mg/dL” value (“Percentage of time … in range of 70-180 mg/dL” below) ([3]; UT-1 400 mg once daily for 7 days with CSII insulin)?
Answer: 69.3% and 56.3% and 69.6% and 67.9% and 56.8%

Question: And the “Percentage of time (using CGM) blood glucose level is above 180 mg/dL” value ([3]; UT-1 400 mg once daily)?
Answer: 20.91% and 42.54% and 22.49% and 30.92% and 36.99%

Question: What about the “Percentage of time (using CGM) blood glucose level is below 54 mg/dL” value ([3]; UT-1 400 mg once daily) of the same compound?
Answer: 0% (3×) and 2.42% and 1.88%

Question: And the “Percentage of time (using CGM) blood glucose level is between 54 and 70 mg/dL” value ([3]; UT-1 400 mg once daily)?
Answer: 4.2% and 0.86% and 5.54% and 0.54% and 4.97%

Question: And the “Percentage of time … in range of 70-180 mg/dL” value ([3]; UT-1 800 mg once daily for 7 days with CSII insulin)?
Answer: 44.3% and 65.4% and 85.9% and 82.7% and 75.7%

Question: And the “Percentage of time (using CGM) blood glucose level is above 180 mg/dL” value ([3]; UT-1 800 mg once daily)?
Answer: 50.66% and 34.56% and 14.07% and 16.82% and 20.46%

Question: What about the “Percentage of time (using CGM) blood glucose level is below 54 mg/dL” value ([3]; UT-1 800 mg once daily) of the same compound?
Answer: 1.38% and 0% (4×)

Question: And the “Percentage of time (using CGM) blood glucose level is between 54 and 70 mg/dL” value ([3]; UT-1 800 mg once daily)?
Answer: 3.27% and 0% (2×) and 0.17% and 0.69%

Question: And the “Percentage of time … in range of 70-180 mg/dL” value ([3]; UT-1 1200 mg once daily for 7 days with CSII insulin)?
Answer: 52.9% and 48.8% and 80.9% and 69.6% and 59.3%

Question: And the “Percentage of time (using CGM) blood glucose level is above 180 mg/dL” value ([3]; UT-1 1200 mg once daily)?
Answer: 42.24% and 50.68% and 18.79% and 24.62% and 30.09%

Question: And the “Percentage of time (using CGM) blood glucose level is below 54 mg/dL” value ([3]; UT-1 1200 mg once daily)?
Answer: 0% (4×) and 3.84%

Question: What about the “Percentage of time (using CGM) blood glucose level is between 54 and 70 mg/dL” value ([3]; UT-1 1200 mg once daily) of the same compound?
Answer: 0.17% (2×) and 0.86% and 1.28% and 5.84%

Question: And the “glycemic control and insulin dose (trend)” value ([3]; dose escalation 400, 800, 1200 mg once daily)?
Answer: trends toward improved glycemic control while reducing insulin dose

Question: What about the “mean value of bolus insulin dose per day” value ([4]; 400 mg dose) of the same compound?
Answer: 25 mean U/day

Question: And the “mean value of bolus insulin dose per day” value ([4]; 800 mg dose)?
Answer: 20 mean U/day

Question: What about the “Mean units of basal insulin units administered per day” value ([4]; UT-1 400 mg once daily) of the same compound?
Answer: 23.9 mean U/day and 15.5 mean U/day and 29.3 mean U/day and 22.6 mean U/day

Question: What about the “Mean units of bolus insulin units administered per day” value ([4]; UT-1 400 mg once daily) of the same compound?
Answer: 22.6 mean U/day and 29.9 mean U/day and 25.5 mean U/day and 23.3 mean U/day

Question: And the “Mean units of basal insulin units administered per day” value ([4]; UT-1 800 mg once daily)?
Answer: 22.6 mean U/day and 15.3 mean U/day and 19.6 mean U/day and 29.8 mean U/day and 22.2 mean U/day

Question: What about the “Mean units of bolus insulin units administered per day” value ([4]; UT-1 800 mg once daily) of the same compound?
Answer: 17.6 mean U/day and 23.4 mean U/day and 22.5 mean U/day and 22 mean U/day and 15.8 mean U/day

Question: What about the “Mean units of basal insulin units administered per day” value ([4]; UT-1 1200 mg once daily) of the same compound?
Answer: 22.9 mean U/day and 13.9 mean U/day and 21.8 mean U/day and 30.5 mean U/day and 19.1 mean U/day

Question: What about the “Mean units of bolus insulin units administered per day” value ([4]; UT-1 1200 mg once daily) of the same compound?
Answer: 16.2 mean U/day and 23.8 mean U/day and 20.9 mean U/day and 28 mean U/day and 25.2 mean U/day

Question: What about the “ratio of mean carbohydrate intake per day to mean bolus insulin dose per day” value ([4]; from baseline to 400 mg dose, and from 400 mg dose to 800 mg dose) of the same compound?
Answer: increase

Question: And the “concentrations of UT-1 (pharmacokinetic data)” value [5]?
Answer: lower in 3 out of 5 subjects

Question: And the “mean difference in HbA1c in the UT-1 group relative to the placebo group” value (adult patients with T1DM [6]; 800 mg once daily, 12 weeks, p=0.03)?
Answer: 0.7%

Question: What about the “ending HbA1c” value (adult patients with T1DM [6]; 800 mg once daily, at 12 weeks, n=8) of the same compound?
Answer: 6.7-6.8%

Question: What about the “mean reduction in HbA1c” value (adult patients with T1DM [6]; 800 mg once daily, at 12 weeks, n=8, baseline mean HbA1c 7.3%, statistically significant) of the same compound?
Answer: 0.6%

Question: What about the “insulin usage (trend)” value (adult patients with T1DM [6]; 800 mg once daily, up to 12 weeks) of the same compound?
Answer: trends toward decreased insulin usage

Question: What about the “patients with abnormal levels of metabolic ketones observed in plasma or urine” value (adult patients with T1DM [6]; 800 mg once daily, placebo 63%) of the same compound?
Answer: 13%

Question: And the “proportion of treatment responders” value (adult patients with T1DM [6]; responder: decrease in HbA1c at Week 12, no abnormal lactate or metabolic ketones, no increased time in Level 2 hypoglycemia, placebo 9%, p=0.006)?
Answer: 75%
